In PMC4671274 (Molecular microbiology, 2015):

Molecular target: Rv0888 (SpmT) (Mycobacterium tuberculosis, UniProt P9WKQ1)
Sequence (P9WKQ1 32-490 limits assumed): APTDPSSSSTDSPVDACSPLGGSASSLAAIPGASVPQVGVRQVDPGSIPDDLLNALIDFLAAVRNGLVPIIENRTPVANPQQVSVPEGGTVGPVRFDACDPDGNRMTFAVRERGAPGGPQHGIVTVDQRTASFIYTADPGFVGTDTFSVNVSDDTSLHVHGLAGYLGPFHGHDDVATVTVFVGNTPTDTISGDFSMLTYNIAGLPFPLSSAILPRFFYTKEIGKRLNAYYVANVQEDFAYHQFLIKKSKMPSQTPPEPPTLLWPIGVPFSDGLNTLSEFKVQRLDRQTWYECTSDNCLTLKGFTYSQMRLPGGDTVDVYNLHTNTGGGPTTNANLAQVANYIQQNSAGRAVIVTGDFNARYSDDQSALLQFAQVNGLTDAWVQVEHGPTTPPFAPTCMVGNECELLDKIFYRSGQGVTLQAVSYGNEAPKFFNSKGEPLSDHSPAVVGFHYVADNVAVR

sphingomyelin
Km: 671 µM
